The target of the test is T1, HCV-NS5b (Hepatitis C virus genotype 1b, UniProt Q9WMX2).
T1 construct: (His)6 (C); made in house; host or cells: XL-1 cells (E. coli), IPTG-inducible plasmid, nickel-NTA purification
Kind of test: HCV-NS5b enzyme assay (incorporation of radiolabeled UTP). Format: biochemical. The conditions noted are these: for inhibition at 100 µM: read-out: % inh@100, enzyme inhibition at compound concentration of 100 uM. The procedure, abridged:
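Percent inhibition, background-corrected against uninhibited control, was measured at 100 and 33 uM compound. Incorporation of [3H]-UTP (10 μM each NTP) into biotinylated HCV-template RNA, 37° C for 2 h, pH 7.5, scintillation proximity. Enzyme: C-terminally truncated (21 aa), His6-tagged NS5b from XL-1.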

[1] abbreviates: enzyme inhibition at compound concentration of 33 uM.

For `NC(=O)C[C@H](NC(=O)c1ccc2c(c1)nc(-c1ccc3nc(-c4ccccc4)cnc3c1)n2C1CCCCC1)C(=O)O` [Compound 518, 2-{[1-Cyclohexyl-2-(2-phenyl-quinoxalin-6-yl)-1H-benzoimidazole-5-carbonyl]-amino}-succinamic acid], the inhibition at 100 µM is 97.8%. For the same compound, the inhibition at 33 µM under setting [1] amounted to 76%.
With `O=C(N[C@@H](Cc1ccc(O)cc1)C(=O)O)c1ccc2c(c1)nc(-c1ccc3nc(-c4ccccc4)cnc3c1)n2C1CCCCC1` [Compound 519, 2-{[1-Cyclohexyl-2-(2-phenyl-quinoxalin-6-yl)-1H-benzoimidazole-5-carbonyl]-amino}-3-(4-hydroxy-phenyl)-propionic acid], the inhibition at 100 µM stood at 99.1%. Under setting [1], the inhibition at 33 µM was found to be 96.9%.
For `O=C(O)[C@@H]1Cc2ccccc2CN1C(=O)c1ccc2c(c1)nc(-c1ccc3nc(-c4ccccc4)cnc3c1)n2C1CCCCC1` [Compound 520, 2-[1-Cyclohexyl-2-(2-phenyl-quinoxalin-6-yl)-1H-benzoimidazole-5-carbonyl]-1,2,3,4-tetrahydro-isoquinoline-3-carboxylic acid], the inhibition at 100 µM came to 98.9%. Further, the inhibition at 33 µM under setting [1] came out at 94.8%.
With `CN1CCN(C(=O)c2ccc3c(c2)nc(-c2cc4ccc(-c5ccccc5-c5ccc(Cl)cc5)nc4cc2F)n3C2CCCCC2)CC1` [Compound 521, {2-[2-(4′-Chloro-biphen-2-yl)-7-fluoro-quinolin-6-yl]-1-cyclohexyl-1H-benzoimidazol-5-yl}-(4-methyl-piperazin-1-yl)-methanone], the inhibition at 100 µM came to 91.4%. Moreover, under setting [1], the inhibition at 33 µM is 84.8%.
On the same counts, the results for `CN1CCN(C(=O)c2ccc3c(c2)nc(-c2cc4ccc(-c5ccccc5-c5ccccc5)nc4cc2F)n3C2CCCCC2)CC1` [Compound 522, [2-(2-Biphen-2-yl-7-fluoro-quinolin-6-yl)-1-cyclohexyl-1H-benzoimidazol-5-yl]-(4-methyl-piperazin-1-yl)-methanone] are 74.2% and 76.7%.
As to `N=C(N)NCCC[C@H](NC(=O)c1ccc2c(c1)nc(-c1ccc3nc(-c4ccccc4)cnc3c1)n2C1CCCCC1)C(=O)O` [Compound 523, 2-{[1-Cyclohexyl-2-(2-phenyl-quinoxalin-6-yl)-1H-benzoimidazole-5-carbonyl]-amino}-5-guanidino-pentanoic acid], the inhibition at 100 µM was 95%. The inhibition at 33 µM under setting [1] worked out at 87.1%.
With `O=C(NCCS(=O)(=O)O)c1ccc2c(c1)nc(-c1ccc3nc(-c4ccccc4)cnc3c1)n2C1CCCCC1` [Compound 524], under setting [1], the “% inh@33” value came to 74.09%. Further, where the note is “enzyme inhibition at compound concentration of 100 uM”, the “% inh@100” value came to 93.58%.
Take `COc1ccc(-c2ccc(Cl)cc2)c(-c2ccc3cc(-c4nc5cc(-c6nnn[nH]6)ccc5n4C4CCCCC4)ccc3n2)c1` [Compound 525, 2-(4′-chloro-4-methoxy-biphen-2-yl)-6-[1-cyclohexyl-5-(1H-tetrazol-5-yl)-1H-benzoimidazol-2-yl]-quinoline]: the inhibition at 100 µM was found to be 101%. The inhibition at 33 µM under setting [1] is 101%.
`O=C(O)c1ccc2cc(NC(=O)c3ccc4c(c3)nc(-c3ccc5nc(-c6ccccc6)cnc5c3)n4C3CCCCC3)ccc2c1` [Compound 526, 6-{[1-Cyclohexyl-2-(2-phenyl-quinoxalin-6-yl)-1H-benzoimidazole-5-carbonyl]-amino}-naphthalene-2-carboxylic acid]: the inhibition at 100 µM came to 99%. Moreover, under setting [1], the inhibition at 33 µM was determined as 96.8%.
In the same order, the values of `COc1ccc(-c2ccc(Cl)cc2)c(-c2ccc3cc(-c4nc5cc(C(=O)O)ccc5n4C(C)C)ccc3n2)c1` [Compound 527, 2-[2-(4′-chloro-4-methoxy-biphen-2-yl)-quinolin-6-yl]-1-isopropyl-1H-benzoimidazole-5-carboxylic acid] are 101% and 99.4%.
On the same counts, the results for `COc1ccc(-c2ccc(Cl)cc2)c(-c2ccc3cc(-c4nc5cc(C(=O)O)ccc5n4C4CC4)ccc3n2)c1` [Compound 528, 2-[2-(4′-chloro-4-methoxy-biphen-2-yl)-quinolin-6-yl]-1-cyclopropyl-1H-benzoimidazole-5-carboxylic acid] are 101% and 100%.
On the same counts, the results for `COc1ccc(-c2ccc(Cl)cc2)c(-c2ccc3cc(-c4nc5cc(C(=O)O)ccc5n4C4CCCC4)ccc3n2)c1` [Compound 529, 2-[2-(4′-chloro-4-methoxy-biphen-2-yl)-quinolin-6-yl]-1-cyclopentyl-1H-benzoimidazole-5-carboxylic acid] are 99.8% and 99.2%.
Regarding `COc1ccc(-c2ccc(Cl)cc2)c(-c2ccc3cc(-c4nc5cc(C(=O)O)ccc5n4CC(C)C)ccc3n2)c1` [Compound 530, 2-[2-(4′-Chloro-4-methoxy-biphen-2-yl)-quinolin-6-yl]-1-isobutyl-1H-benzoimidazole-5-carboxylic acid], the inhibition at 100 µM was 98.2%. For the same compound, the inhibition at 33 µM under setting [1] turned out to be 98.2%.
On to `COc1ccc(-c2ccc(Cl)cc2)c(-c2ccc3cc(-c4nc5cc(C(=O)O)ccc5n4CC4CC4)ccc3n2)c1` [Compound 531, 2-[2-(4′-chloro-4-methoxy-biphen-2-yl)-quinolin-6-yl]-1-cyclopropylmethyl-1H-benzoimidazole-5-carboxylic acid], for which the inhibition at 100 µM was 99.3%. Further, the inhibition at 33 µM under setting [1] was 100%.
With `COc1ccc(-c2ccc(Cl)cc2)c(-c2ccc3cc(-c4nc5cc(C(=O)O)ccc5n4CCC(C)C)ccc3n2)c1` [Compound 532, 2-[2-(4′-chloro-4-methoxy-biphen-2-yl)-quinolin-6-yl]-1-(3-methyl-butyl)-1H-benzoimidazole-5-carboxylic acid], the inhibition at 100 µM was 98.8%. Besides, the inhibition at 33 µM under setting [1] is 99.6%.
Regarding `COc1ccc(-c2ccc(Cl)cc2)c(-c2ccc3cc(-c4nc5cc(C(=O)O)ccc5n4CCN(C)C)ccc3n2)c1` [Compound 533, 2-[2-(4′-chloro-4-methoxy-biphen-2-yl)-quinolin-6-yl]-1-(2-dimethylamino-ethyl)-1H-benzoimidazole-5-carboxylic acid], the inhibition at 100 µM was found to be 89.8%. Under setting [1], the inhibition at 33 µM amounted to 56.8%.
On the same counts, the results for `CCn1c(-c2ccc3nc(-c4cc(OC)ccc4-c4ccc(Cl)cc4)ccc3c2)nc2cc(C(=O)O)ccc21` [Compound 534, 2-[2-(4′-chloro-4-methoxy-biphen-2-yl)-quinolin-6-yl]-1-ethyl-1H-benzoimidazole-5-carboxylic acid] are 101% and 90.1%.
Take `O=C(O)c1cnc2c(c1)nc(-c1ccc3nc(-c4cc(O)ccc4-c4ccc(Cl)cc4)ccc3c1)n2C1CCCCC1` [Compound 535, 2-[2-(4′-chloro-4-hydroxy-biphen-2-yl)-quinolin-6-yl]-3-cyclohexyl-3H-imidazo[4,5-b]pyridine-6-carboxylic acid]: the inhibition at 100 µM came out at 100%. For the same compound, under setting [1], the inhibition at 33 µM stood at 101%.
With `COc1ccc(-c2ccc(Cl)cc2)c(-c2ccc3cc(-c4[nH]c5cc(C(=O)O)ccc5c4C4CCCCC4)ccc3n2)c1` [Compound 536, 2-[2-(4′-Chloro-4-methoxy-biphen-2-yl)-quinolin-6-yl]-3-cyclohexyl-1H-indole-6-carboxylic acid], the inhibition at 100 µM was found to be 98.9%. In addition, the inhibition at 33 µM under setting [1] came out at 97.5%.

Source of the values: patent publication US7511145B2 (Genelabs Technologies, Inc., priority 2003, dated 2009).
